Several values for one entry are separate records, joined by “and”; a condition that tells them apart may be missing. Equal entries are not always repeated. Where two headings read alike, the source gives them in different places.
How the values were obtained:
[1] = molecular target: T1, hAChE (AChE from human erythrocytes) (Homo sapiens, UniProt P22303); assay: hAChE inhibition, spectrometric Ellman method; type: biochemical; details: for inhibition at 1 µM: 10^−6 M compound; for IC50: Ellman method, n = 2; for inhibition of the enzyme (AChE), in words: statement in discussion
T1 construct: AChE from human erythrocytes; purchased Sigma Aldrich; host or cells: human erythrocytes (tissue-derived enzyme)
T1 sequence (P22303 other isoform, or with tags, fused parts or gaps): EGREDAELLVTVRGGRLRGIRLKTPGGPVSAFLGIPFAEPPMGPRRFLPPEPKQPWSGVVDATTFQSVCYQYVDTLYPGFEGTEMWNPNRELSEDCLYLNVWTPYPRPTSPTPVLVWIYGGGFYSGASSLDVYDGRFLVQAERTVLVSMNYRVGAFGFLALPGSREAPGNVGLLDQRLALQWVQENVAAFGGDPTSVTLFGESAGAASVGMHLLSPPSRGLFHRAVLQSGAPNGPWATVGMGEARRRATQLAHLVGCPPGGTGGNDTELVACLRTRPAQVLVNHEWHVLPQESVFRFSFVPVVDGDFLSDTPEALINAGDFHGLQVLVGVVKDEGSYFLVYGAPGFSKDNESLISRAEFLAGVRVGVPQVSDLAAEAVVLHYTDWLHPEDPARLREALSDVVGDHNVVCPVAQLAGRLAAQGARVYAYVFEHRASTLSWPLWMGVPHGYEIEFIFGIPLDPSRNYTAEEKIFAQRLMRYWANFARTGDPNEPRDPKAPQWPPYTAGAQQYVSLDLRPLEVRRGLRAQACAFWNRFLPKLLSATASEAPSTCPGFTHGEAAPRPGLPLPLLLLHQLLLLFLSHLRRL
Description: Inhibitory capacity of compounds on AChE biological activity was evaluated through the use of the spectrometric method of Ellman[39]. Acetylthiocholine and 5,5-dithiobis-(2-nitrobenzoic) acid (DTNB) were purchased from Sigma Aldrich. AChE from human erythrocytes (buffered aqueous solution, ≥500 units/mg protein (BCA), Sigma Aldrich) was diluted in 20 mM HEPES buffer pH 8, 0.1% Triton X-100 such as to have enzyme solution with 0.25 unit/mL enzyme activity. In the procedure, 100 μL of 0.3 mM DTNB dissolved in phosphate buffer pH 7.4 were added into the 96 wells plate followed by 50 μL of test compound solution and 50 μL of enzyme ([…]). After 5 min of preincubation at 25 °C, the reaction was then initiated by the injection of 50 μL of 10 mM acetylthiocholine iodide solution. The hydrolysis of acetylthiocholine was monitored by the formation of yellow 5-thio-2-nitrobenzoate anion as the result of the reaction of DTNB with thiocholine, released by the enzymatic hydrolysis of acetylthiocholine, at a wavelength of 412 nm using a 96-well microplate plate reader (TECAN Infinite M200, Lyon, France). Test compounds were dissolved in analytical grade DMSO. Donepezil was used as a reference standard. The rate of absorbance increase at 412 nm was followed every minute for 10 min. Assays were performed with a blank containing all components except acetylthiocholine, in order to account for non-enzymatic reaction. The reaction slopes were compared and the percent inhibition due to the presence of test compounds was calculated by the following expression: 100 − (vi/v0 × 100) where vi is the rate calculated in the presence of inhibitor and v0 is the enzyme activity.
For the compounds with significant inhibition (≥50%), IC50 values were determined graphically by plotting the % inhibition versus the logarithm of six inhibitor concentrations in the assay solution using the Origin software.

[2] = molecular target: T2, human 5-HT4R (5-HT4(b) receptor membranes) (Homo sapiens, UniProt Q13639); assay: h5-HT4R competition binding with [3H]-GR113808; details: for inhibition: 0.2 nM [3H]-GR113808
T2 construct: purchased Millipore HTS110M
T2 sequence (Q13639 whole entry): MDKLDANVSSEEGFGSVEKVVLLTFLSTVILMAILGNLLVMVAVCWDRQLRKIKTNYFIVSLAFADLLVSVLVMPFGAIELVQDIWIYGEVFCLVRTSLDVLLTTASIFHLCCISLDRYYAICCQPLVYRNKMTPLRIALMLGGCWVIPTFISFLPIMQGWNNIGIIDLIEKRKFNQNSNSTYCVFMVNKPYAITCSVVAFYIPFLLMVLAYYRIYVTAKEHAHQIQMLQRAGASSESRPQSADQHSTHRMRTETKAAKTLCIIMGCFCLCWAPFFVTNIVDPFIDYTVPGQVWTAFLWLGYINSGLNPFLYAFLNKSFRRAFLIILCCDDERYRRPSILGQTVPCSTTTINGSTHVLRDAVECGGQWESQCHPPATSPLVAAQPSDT
Description: The competition studies used membrane preparations made from proprietary stable recombinant cell lines expressing the 5-HT4(b) receptor to ensure high-level of GPCR surface expression (HTS110M, Millipore). Membranes (2.5 µg protein) were incubated in duplicate at 25 °C for 60 min in the absence or the presence of 10^–6 or 10^–8M of each drug and 0.2 nM [^3H]-GR 113808 (VT 240, ViTrax) in 25 mM Tris buffer (pH 7.4, 25 °C). At the end of the incubation, homogenates were filtered through Whatman GF/C filters (Alpha Biotech) pre-soaked with 0.5% polyethylenimine using a Brandel cell harvester. Filters were subsequently washed three times with 4 mL of ice-cold 25 mM Tris buffer (pH 7.4, 4 °C). Non-specific binding was evaluated in parallel in the presence of 30 μM serotonin.
For some of these compounds, affinity constants were calculated from five-point inhibition curves using the EBDA-Ligand software and expressed as Ki ± SD[41].

[3] = system: 5-HT4dR; details: cited from earlier work
[4] = molecular target: T3, HA-tagged human 5-HT4 receptor (Homo sapiens, UniProt Q13639); assay: cAMP production, competition assay in antagonist mode vs serotonin, transfected COS-7 cells; type: cell-based; details: for 5-HT4 pharmacological profile (antagonism assay): cAMP production
T3 construct: HA; expressed in transfected cells; host or cells: COS-7 cells (ATCC CRL-1651), transient transfection
T3 sequence (Q13639 whole entry): as above
Source text: (§1) Figure 5 Determination of the 5-HT4 pharmacological profiles for compounds 16, 32a and 33 by quantification of cAMP production. (A) Assay to determine the agonism activity (with serotonin and the partial agonist RS-67333 as references). (B) Assay to determine the antagonism activity (with the antagonist GR113808 as reference). Data presented are the mean of three independent experiments performed in duplicate.
(§2) COS-7 cells were purchased from ATCC (ATCC CRL-1651; LGC […], Molsheim, France). T were grown in Dulbecco’s modified Eagle medium (DMEM) supplemented with 10% dialyzed fetal calf serum (dFCS) and antibiotics. Cells were transiently transfected with plasmid encoding HA-tagged human 5-HT4 receptor, then seeded in 96-well plates (35,000 cells/well). 24 hrs after transfection, cells were washed once with 200 µl of HBS (20 mM HEPES; 150 mM NaCl; 4.2 mM KCl; 0.9 mM CaCl2; 0.5 mM MgCl2; 0.1% glucose; 0.1% BSA) and, after HBS removal, exposed to the indicated concentrations of 5-HT4R ligands in the presence of 0.1 mM of the phosphodiesterase inhibitor RO-20-1724, at 37 °C in 100 µl of HBS. After 10 min, cells were then lysed by addition of the same volume of Triton-X100 (0.1%) during 30 min at 37 °C. The competition assay in antagonist mode was performed as follows: after one wash in 200 µl of HBS, cells were exposed to 5-HT4R ligands at twice the indicated concentration, at 37 °C in 50 µl of HBS. After 7 min, serotonin (final concentration of 5.10^−7M) was added in 50 µl of HBS in the presence of the phosphodiesterase inhibitor RO-20-1724 (final concentration of 0.1 mM). After 10 min, cells were then lysed by addition of the same volume of Triton-X100 (0.1%) during 30 min at 37 °C. Quantification of cAMP production was performed by HTRF by using the cAMP Dynamic kit (Cisbio Bioassays) according to the manufacturer’s instructions

[5] = molecular target: T3, HA-tagged human 5-HT4 receptor; assay: cAMP production, agonist mode, transfected COS-7 cells; type: cell-based; details: for 5-HT4 pharmacological profile (agonism assay): cAMP production, COS-7 cells; for Log(EC50): given as Log(EC50)
Source text: as §1, §2

[6] = parameters: method as in PMID 8064800; details: cited from earlier work
[7] = system: BuChE; parameters: method as in PMID 8064800; details: cited from earlier work
[8] = parameters: method as in PMID 8064800; details: mouse; cited from earlier work
[9] = system: AChE; details: read-out: AChE IC50; cited from earlier work
[10] = 10^−6 M compound, read-out: h5-HT4R % inhibition at 10^−6 M (converted)
[11] = 10^−8 M compound, read-out: h5-HT4R % inhibition at 10^−8 M (converted)
[12] = IC50 (5-HT4R antagonist, cAMP production), COS-7 cells, serotonin 5.10^−7 M, mean of three experiments
[13] = IC50, antagonist mode, individual experiments HP8, HP10, HP11, unit inferred
[14] = Log(IC50), antagonist mode, Moy., printed as Log(IC50), negative
[15] = antagonist mode, individual experiments HP8, HP10, HP11
[16] = agonist mode, individual experiments HP5, HP6, HP7
[17] = agonist mode, Moy. (mean of HP5-HP7), unit not given
[18] = agonist mode, individual experiments HP5, HP6, HP7, unit not given

| SMILES | inhibition at 1 µM [1] [%] | IC50 [1] [nM] | Ki [2] [nM] | inhibition [2, 10] [%] | inhibition [2, 11] [%] | other results |
| --- | --- | --- | --- | --- | --- | --- |
| c1cc(OC2CCCC2)c2c(CCC3CCN(CC4CCCCC4)CC3)noc2c1 [Compound 32d] | 52 | 1000 ± 84 | 616 ± 67 | 100 | 0 |  |
| CC(C)CN1CCC(COc2noc3ccccc23)CC1 [Compound 13] | 8 |  | 20.8 ± 12.5 | 100 | 59 |  |
| c1ccc(COc2cccc3onc(CCC4CCN(CC5CCCCC5)CC4)c23)cc1 [Compound 32e] | 10 |  | 2920 ± 781 | 96 | 0 |  |
| c1ccc(CN2CCC(COc3noc4ccccc34)CC2)cc1 [Compound 12] |  |  | 42.4 ± 12.2 | 99 | 29 |  |
| OC1(CN2CCC(COc3noc4cccc(O[C@@H]5CCOC5)c34)CC2)CCOCC1 [[A]] |  |  |  |  |  | 5-HT4dR Emax [3]: 24%; EC50 [3]: 0.2 nM |
| c1ccc2c(OCC3CCN(CC4CCCCC4)CC3)noc2c1 [Compound 11, 3-[[1-(cyclohexylmethyl)-4-piperidyl]methoxy]-1,2-benzoxazole] | 24 |  | 9.6 ± 1.6 | 100 | 67 |  |
| COc1cccc2onc(CCC3CCN(CC4CCCCC4)CC3)c12 [Compound 32a, 3-[2-[1-(cyclohexylmethyl)-4-piperidyl]ethyl]-4-methoxy-1,2-benzoxazole] | 94 | 63.5 ± 19.2 | 59 ± 8.5 | 100 | 13 | IC50 [4, 12]: 97.2 ± 17.2 nM; IC50 [4, 13]: 129 nM and 69.5 nM and 93.6 nM; IC50 [4, 14]: 100 nM; Bott. AMPc ([4]; antagonist mode, Moy.): 33%; Bott. AMPc [4, 15]: 38.80% and 27.69% and 32.50%; 5-HT4 pharmacological profile (antagonism assay) ([4]; COS-7 cells): antagonists; EC50 ([5]; EC50, agonist mode, Moy. (mean of HP5-HP7), unit inferred): 11300 nM; EC50 ([5]; EC50, agonist mode, individual experiments HP5, HP6, HP7, unit inferred): 13600 nM and 20300 nM; Top AMPc ([5]; agonist mode, Moy.): 22%; Top AMPc [5, 16]: 29.36% and 12.83% and 24.95%; 5-HT4 pharmacological profile (agonism assay) [5]: not agonist |
| Oc1cccc2onc(CCC3CCN(CC4CCCCC4)CC3)c12 [Compound 33] | 87 | 97.3 ± 1.5 | 37 ± 10.5 | 100 | 29 | IC50 [4, 12]: 883 ± 598 nM; Bott. AMPc ([4]; antagonist mode, Moy.): 44%; Bott. AMPc [4, 15]: 50.44% and 46.43% and 34.27%; 5-HT4 pharmacological profile (antagonism assay) ([4]; COS-7 cells): antagonists; Top AMPc ([5]; agonist mode, Moy.): -3%; EC50 [5, 17]: ns; Log(EC50) ([5]; agonist mode, Moy., negative): ns; Top AMPc [5, 16]: -15.21% and 4.96% and 0.00%; Log(EC50) [5, 16]: ns; EC50 [5, 18]: ns; 5-HT4 pharmacological profile (agonism assay) [5]: not agonist |
| c1ccc2c(CCC3CCN(CC4CCCCC4)CC3)noc2c1 [Compound 21] | 84 | 240 ± 59 | 139 ± 9 | 89 | 4 |  |
| CC(C)COc1cccc2onc(CCC3CCN(CC4CCCCC4)CC3)c12 [Compound 32c] | 42 |  | 219 ± 65 | 100 | 4 | inhibition of the enzyme (AChE), in words [1]: without AChE inhibition |
| CCOc1cccc2onc(CCC3CCN(CC4CCCCC4)CC3)c12 [Compound 32b] | 87 | 200 ± 32 | 80.5 ± 9.9 | 100 | 16 |  |
| c1ccc(CN2CCC(CCc3noc4ccccc34)CC2)cc1 [Compound 22] |  |  | 263 ± 11 | 78 | 8 |  |
| COc1cccc2onc(OCC3CCN(Cc4ccccc4)CC3)c12 [Compound 15] | 82 | 939 ± 40 | 3 ± 0.4 | 100 | 94 |  |
| COc1cccc2onc(OCC3CCN(CC4CCCCC4)CC3)c12 [Compound 14] | 82 | 441 ± 63 | 2.7 ± 0.4 | 100 | 99 |  |
| CC(=O)Nc1ccc2c(CCC3CCN(Cc4ccccc4)CC3)noc2c1 [[B]] |  |  |  |  |  | elevation of ACh in mouse [6]: dose-dependent elevation of ACh; IC50 [7]: 9000 nM; ratio BuAChE/AChE ([7]; selectivity ratio): 3200; effect on amnesia, passive avoidance model [8]: reversion of amnesia; IC50 [9]: 2.8 nM |
| CC(C)CN1CCC(CCc2noc3ccccc23)CC1 [Compound 23] | 11 |  |  | 87 | 8 |  |
| COc1cccc2onc(OCC3CCN(CC(C)C)CC3)c12 [Compound 16] | 23 |  | 4.1 ± 0.4 | 100 | 100 | inhibition of the enzyme (AChE), in words [1]: did not show any inhibition; IC50 [4, 12]: 5.6 ± 2.2 nM; IC50 [4, 13]: 5.07 nM and 2.01 nM and 9.78 nM; IC50 [4, 14]: 5.01 nM; Bott. AMPc ([4]; antagonist mode, Moy.): 31%; Bott. AMPc [4, 15]: 39.69% and 29.62% and 24.98%; 5-HT4 pharmacological profile (antagonism assay) ([4]; COS-7 cells): highly potent antagonist; Top AMPc ([5]; agonist mode, Moy.): 4%; EC50 [5, 17]: ns; Log(EC50) ([5]; agonist mode, Moy., negative): ns; Top AMPc [5, 16]: 5.63% and 0.00% and 6.91%; Log(EC50) [5, 16]: ns; EC50 [5, 18]: ns; 5-HT4 pharmacological profile (agonism assay) [5]: not agonist |

Reference: paper PMC7033111, “Rational design of novel benzisoxazole derivatives with acetylcholinesterase inhibitory and serotoninergic 5-HT4 receptors activities for the treatment of Alzheimer’s disease” (Scientific Reports, 2020)
